Source: patent publication US20130324707A1, “SYNTHETIC AMPHIPHILES FOR MEMBRANE PROTEIN MANIPULATION” (The Board of Trustees of the Leland Stanford Junior …, priority 2009, published 2013)
Marks after values point to notes of the source that are not given here.

Experiments:
[1] = Critical micelle concentration (CMC) by fluorescent dye uptake; assay type: physicochemical
Excerpt: The Critical Micelle Concentrations (CMCs) of compounds of the invention can be determined by standard techniques known to those of skill in the art. For example, CMCs of the carbohydrate-based amphiphiles described herein can be determined by monitoring uptake of a fluorescent dye (e.g., a dye such as 1,6-diphenylhexatriene) with increasing detergent concentration, monitored by fluorescence spectroscopy.

[2] = system: human β2 adrenergic receptor-T4-lyosome fusion protein (β2AR-T4L); assay: Thermal stabilization (Tm) of β2AR-T4L in amphiphile, normalized peak ratio 341 nm/356 nm; set-up: Tm: unit: °C; conditions: for Tm: β2AR-T4L
Excerpt: FIG. 3 illustrates the results of comparing MNGs to MPAs at 10×CMC for stabilization efficacy of β2 adrenergic receptor-T4-lyosome fusion protein (β2AR-T4L), according to an embodiment of the invention.
FIG. 4 illustrates the results of comparing MNGs to MPAs at 50×CMC for stabilization efficacy of β2AR-T4L, according to an embodiment of the invention. Similar to FIG. 3, the horizontal dotted line extending from 50% on the y-axis in FIG. 4 indicates the melting temperature (Tm).
The branched amphiphiles of the invention have shown to have several advantageous properties that match or surpass those of many known amphiphiles. The branched nature provide improved stabilization, attributable to the dual saccharide chains, and improved solubilization, attributable to the dual hydrophobic tail groups. FIGS. 3 and 4 show a comparative study showing normalized peak ratios (341 nm/356 nm) for six different amphiphiles (illustrated in Schemes F and G) from 25° C. to 85° C., at 10×CMC and 50×CMC for human β2 adrenergic receptor-T4-lyosome fusion protein (β2AR-T4L).

[3] = 10 × CMC, scan from 25° C. to 85° C.
[4] = concentration not given, matches most favourable (*) Tm minus DDM 63.5

Row | Compound | CMC [1] | CMC (%) [1] | also measured
1 | CCCCCCCCCCCCCC(=O)NCC(CNC(=O)CCCCCCC)(COC1OC(CO)C(OC2OC(CO)C(O)C(O)C2O)C(O)C1O)COC1OC(CO)C(OC2OC(CO)C(O)C(O)C2O)C(O)C1O (stereo not drawn) [MNG-15] | 0.02 mM | 0.0022% | 
2 | CCCCCCCCCCCCCCCC(=O)NCC(CNC(=O)CCCCC)(COC1OC(CO)C(OC2OC(CO)C(O)C(O)C2O)C(O)C1O)COC1OC(CO)C(OC2OC(CO)C(O)C(O)C2O)C(O)C1O (stereo not drawn) [MNG-16] | 0.023 mM | 0.0026% | 
3 | CCCCCCCCCCCCC(=O)NCC(CNC(=O)CCCCCCCC)(COC1OC(CO)C(OC2OC(CO)C(O)C(O)C2O)C(O)C1O)COC1OC(CO)C(OC2OC(CO)C(O)C(O)C2O)C(O)C1O (stereo not drawn) [MNG-17] | 0.02 mM | 0.002% | 
4 | CCCCCCCCCCCCCCC(=O)NCC(CNC(=O)CCCCCC)(COC1OC(CO)C(OC2OC(CO)C(O)C(O)C2O)C(O)C1O)COC1OC(CO)C(OC2OC(CO)C(O)C(O)C2O)C(O)C1O (stereo not drawn) [MNG-18] | 0.024 mM | 0.0027% | 
5 | CCCCCCCC(=O)NCC(CNC(=O)CCCCC1CCCCC1)(COC1OC(CO)C(OC2OC(CO)C(O)C(O)C2O)C(O)C1O)COC1OC(CO)C(OC2OC(CO)C(O)C(O)C2O)C(O)C1O (stereo not drawn) [MNG-19] | 0.18 mM | 0.0194% | 
6 | CCCCCCCCC(=O)NCC(CNC(=O)CCCCCCCC)(COC1OC(CO)C(OC2OC(CO)C(O)C(O)C2O)C(O)C1O)COC1OC(CO)C(OC2OC(CO)C(O)C(O)C2O)C(O)C1O (stereo not drawn) [MNG-20] | 0.3 mM | 0.0319% | 
7 | CCCCCCCC(=O)NCC(CNC(=O)C(C1CCCCC1)C1CCCCC1)(COC1OC(CO)C(OC2OC(CO)C(O)C(O)C2O)C(O)C1O)COC1OC(CO)C(OC2OC(CO)C(O)C(O)C2O)C(O)C1O (stereo not drawn) [MNG-21] | 0.24 mM | 0.0268% | 
8 | O=C(Cc1cc(C(F)(F)F)cc(C(F)(F)F)c1)NCC(CNC(=O)Cc1cc(C(F)(F)F)cc(C(F)(F)F)c1)(COC1OC(CO)C(OC2OC(CO)C(O)C(O)C2O)C(O)C1O)COC1OC(CO)C(OC2OC(CO)C(O)C(O)C2O)C(O)C1O (stereo not drawn) [MNG-23] | 0.9 mM | 0.1162% | 
9 | O=C(CCc1cc(C(F)(F)F)cc(C(F)(F)F)c1)NCC(CNC(=O)CCc1cc(C(F)(F)F)cc(C(F)(F)F)c1)(COC1OC(CO)C(OC2OC(CO)C(O)C(O)C2O)C(O)C1O)COC1OC(CO)C(OC2OC(CO)C(O)C(O)C2O)C(O)C1O (stereo not drawn) [MNG-24] | 0.84 mM | 0.1108% | 
10 | CC(C)(C)C1CCC(C(=O)NCC(CNC(=O)C2CCC(C(C)(C)C)CC2)(COC2OC(CO)C(OC3OC(CO)C(O)C(O)C3O)C(O)C2O)COC2OC(CO)C(OC3OC(CO)C(O)C(O)C3O)C(O)C2O)CC1 (stereo not drawn) [MNG-26] | 0.12 mM | 0.0134% | 
11 | CCCCCCCCCCCC(=O)NCC(CNC(=O)CCCCCCCCCCC)(COC1OC(CO)C(OC2OC(CO)C(O)C(O)C2O)C(O)C1O)COC1OC(CO)C(OC2OC(CO)C(O)C(O)C2O)C(O)C1O (stereo not drawn) [MNG-27] | 0.008 mM | 0.0009% | 
12 | CCCCCCCCCOCC(COCCCCCCCCC)(COC1OC(CO)C(OC2OC(CO)C(O)C(O)C2O)C(O)C1O)COC1OC(CO)C(OC2OC(CO)C(O)C(O)C2O)C(O)C1O (stereo not drawn) [MNG-30] | 0.017 mM | 0.0018% | 
13 | CCCCCCCCOCC(COCCCCCCCC)(COC1OC(CO)C(OC2OC(CO)C(O)C(O)C2O)C(O)C1O)COC1OC(CO)C(OC2OC(CO)C(O)C(O)C2O)C(O)C1O (stereo not drawn) [MNG-31] | 0.034 mM | 0.0034% | 
14 | CCCCC(CCCC)OCC(COC(CCCC)CCCC)(COC1OC(CO)C(OC2OC(CO)C(O)C(O)C2O)C(O)C1O)COC1OC(CO)C(OC2OC(CO)C(O)C(O)C2O)C(O)C1O (stereo not drawn) [MNG-33] | 0.092 mM | 0.0095% | 
15 | CCCCCCCCCCC(=O)NCCOC1OC(CO)C(OC2OC(CO)C(O)C(O)C2O)C(O)C1O (stereo not drawn) [MPA-6] |  |  | ΔTm ([2]; 10 × CMC, relative to DDM): −12.1; Tm [2, 3]: 51.4 (n = 3)*; ΔTm [2, 4]: −12.1
16 | CCCCCCCCCCOCCOC1OC(CO)C(OC2OC(CO)C(O)C(O)C2O)C(O)C1O (stereo not drawn) [MPA-11] |  |  | ΔTm ([2]; 10 × CMC, relative to DDM): −4.7; Tm [2, 3]: 58.8 (n = 3)*; ΔTm ([2]; 50 × CMC, relative to DDM): −4.7; Tm ([2]; 50 × CMC): 58.3 (n = 3); ΔTm [2, 4]: −4.7
